US6590123B2, “Aminobenzoic acid derivatives having anti-tumorigenic activity, methods of making and using the same” (Mount Sinai School of Medicine of New York University, priority 1998, dated 2003)
Several values for one entry are separate records, joined by “and”; a condition that tells them apart may be missing. Equal entries are not always repeated. Entries after “also recorded” stand apart in the source; their conditions may differ. Where two headings read alike, the source gives them in different places.

Legend:
CEM cells [1] = experiment: Cytotoxicity, ID50 and ID90 by trypan blue staining; assay type: cell-based; details: for IC90 / IC50: Homo sapiens, CCRF-CEM; for IC90: 48 h; for IC50: 48 hr, NT = Non-toxic to CEM cells
Description: CEM cells, a human T-cell lymphoblastoid leukemia cell line (American Type Culture Collection, Rockville, Md.), were cultured in suspension (Iscove's Dulbecco's Medium) supplemented with 10% heat inactivated fetal bovine serum (FBS), penicillin (250 μ/ml) and streptomycin (250 μl/ml). Cells were incubated at 37° C. in 5% C02 and only those cells in exponential growth were used.
CEM cells were seeded into 96-well microplates (Falcon, Oxnard, Calif.) at 10^5 cell per well, then treated with 0-10 μg/ml of the candidate compounds for 48 h at 37° C. yielding a total volume of 250 μ/well. Cell viability was assessed by trypan blue staining. ID50 and ID90 were defined as the concentration killing 50% or 90% of the cells in comparison with untreated controls, and calculated by non-linear regression analysis.
Cells in suspension culture were seeded into 96-well microplates (Falcon, Oxnard, Calif.) at 10^5 cell per well, followed, by treatment with 0-10 μg/ml of the candidate compounds for 48 hr at 37° C. with total volume of 250 μl per well. Cell viability was assessed by trypan blue exclusion.
The ID50 and ID90 was determined in duplicate in every set of experiments, and each experiment was repeated 3 times under identical conditions. ID50 and ID90 were defined as drug concentrations that induced 50% or 90% cellular death in comparison with untreated controls and calculated by non-linear regression analysis. […]

CEM cells [2] = experiment: Morphology by microscopy (mitotic arrest, apoptosis, necrosis); assay type: cell-based, human; details: for Mitotic arrest, %: % of mitotic cells after 24 h incubation, optical microscopy; for morphological effect on leukemic cells / Activities of inducing Apoptosis / Activities of inducing Mitotic block / Activities of inducing Necrosis: CEM leukemic cells; for Activities of inducing Apoptosis / Activities of inducing Mitotic block / Activities of inducing Necrosis: % of affected cells
Description: Slides for examination of mitosis were prepared on a cytospin centrifuge (Shandon Southern Products Ltd, England ) at 700 g for 5 min. Slides were air dried, fixed in methanol and stained with Giemsa (Harleco, N.J.) at room temperature for 15 min. Cells in mitotic arrest were recognized by the disappearance of nuclear membrane and by the appearance of chromosomal scattering throughout the cytoplasm (reference 1). The % of mitotic cells were counted after 24 h incubation using optical microscopy. Apoptotic cells were identified using common criteria, i.e., shrinkage in cell size, chromatin condensation and fragmentation of the nucleus into discrete masses (reference 2).
Cell samples on slides were prepared by a Cytospin centrifuge (Shandon Southern Products Ltd, England) at 700 g for 5 min. The slides were air dried, fixed in methanol and stained with Giemsa (Harleco, N.J.) at room temperature for 15 min. Alterations of nuclei, membranes and morphological features were observed by light microscopy. Cells in mitotic phase were recognized by the appearance of their chromosomes dispersed in the cytoplasm, and by the disappearance of nuclear membrane. Apoptotic-cells were identified using previously defined criteria, i.e., shrinkage in cell size, chromatin condensation and fragmentation of the nucleus into discrete masses (references 2 & 3). Necrotic cells were differentiated from apoptotic cells by observing swollen cytoplasm and the disappearance of cell membrane prior to the destruction of the nucleus.

Purified tubulin = experiment: Inhibition of microtubule assembly by spectrophotometry, cell free system; assay type: biochemical, calf; details: cell free tubulin, up to 10 μg/ml
Description: Purified tubulin was purchased from Sigma (St. Louis, Mo.). The effects of compounds 6, 7, 8, 9, paclitaxel and vinblastine on the microtubule assembly-disassembly process were determined using conditions recommended by the vendor. For assembly inhibition, 100 μl tubulin solution (500-600 μg protein/ml) was mixed gently with 400 μl reaction buffer containing 0.1 M MES (2-[N-morpholino]ethane sulfonic acid), 1 mM EGTA ([…]-N,N,N′,N′-tetraacetic acid), 0.5 mM MgCl2, 0.1 mM EDTA and 2.5 M gycerol at 37° C. Compounds 6, 7, 8, and 9 were next added to each sample at final concentrations of 10, 10, 1 and 1 μg/ml, respectively. After adding GTP to each sample to a final concentration of 1 mM, the microtubule assembly process was monitored by measuring the change of absorbance (OD) at 350 nm on a spectrophotometer (Ultrospec III, Pharmacia LKB, Uppsala, Sweden). A completed assembly process was observed within 40 min at room temperature. For disassembly inhibition, compounds 6, 7, 8, and 9 were added, at the above concentrations, to covets with repolymerized microtubules as described above, and incubated in melting ice. Changes of absorbance (OD) were monitored at 350 nm for 30 min until the OD values in the controls returned to the starting level, i.e., when the assembly-disassembly cycle was completed.
Purified tubulin from calf brain was purchased from Sigma (St. Louis, Mo.). The effects of 3-BAABU (3-bromoacetoamido, benzoylurea) on the microtubule assembly-disassembly process were determined using the conditions recommended by the vendor. For assembly inhibition, 100 μl tubulin solution (500-600 μg protein/ml) was mixed gently with 400 μl reaction buffer containing 0.1 M MES, 1 mM EGTA, 0.5 mM MgCl2, 0.1 mM EDTA and 2.5 M glycerol at 37° C. 3-BAABU, paclitaxel or vinblastine were then added to each sample cuvet at final concentrations of 3.3, 23 or 22 μM, respectively. After adding GTP to each sample to a final concentration of 1 mM, the microtubule assembly process was monitored by measuring the change of absorbance (OD) every 5 min at 350 nm on a spectrophotometer (Ultrospec III, Pharmacia LKB, Uppsala, Sweden). A completed assembly process was observed within 40 min at room temperature. For disassembly inhibition, 3-BAABU (3.3 μM), paclitaxel (23 μM) or vinblastine (22 μM) was added to a cuvet with repolymerized microtubules according to the method described above, and incubated in melting ice. Changes of absorbance (OD) were monitored at 350 nm for 30 min until the OD values in the controls returned to the starting level, i.e., completion of the assembly-disassembly cycle. Solvent solutions were used as control and had no effect in either the assembly or disassembly process.

CEM cells [3] = experiment: Cell cycle analysis by flow cytometry; assay type: cell-based, human; details: 8 h treatment, compound 6 2.5 μg/ml, compound 8 0.025 μg/ml, compound 9 0.005 μg/ml
CEM cells [4] = experiment: DNA fragmentation by electrophoresis (apoptosis); assay type: cell-based, human; details: 48 hours, compound 8 0.025 μg/ml, compound 9 0.005 μg/ml, fluorine compound 5.0 μg/ml, chlorine compound 0.75 μg/ml
Description: DNA fragmentation was determined by a method reported previously (reference 3). Briefly, cells were treated in 1 ml lysis buffer (0.01M Tris. HCL pH 8.0, 0.01M NaCl, 0.01M EDTA pH 8.0 and 5% sodium dodecyl sulfate) containing 1 μg/ml protease K for 1 h at 50° C. The resulting products were extracted with phenol and chloroform:isoamylalcohol (24:1, v/v), and precipitated with ethanol followed by centrifugation at 7800 g (Sorvall RC-5B Du Pont, Newtown, Conn.). The ethanol was removed and the dry pellets of nucleic acid were resuspended in 10 mM Tris-HCL/1 mM EDTA solution. When DNA content was determined spectrophotometrically all samples had A260/A280 ratio≧2. The DNA samples were then treated with RNase (Sigma, St. Louis, Mo.) at a final concentration of 0.1 μg/μl for 20 min at 37° C. before gel loading. Approximately 4 μg size DNA aliquots were loaded onto horizontal agarose gel (1.5%) prepared with 1% ethidium bromide. Electrophoresis was performed at 75 volts for 2 h and the DNA patterns were visualized with UV light.
[…] After incubation, cells were washed twice in PBS. Cell pellets were resuspended in drug-free medium and incubated for 48 hr at 37° C. Cell viability, morphology, mitotic spindles, cell cycle distribution and apoptosis were determined 24 hr and 48 hr post pulse exposure.
Soluble DNA from cells was extracted by the method reported previously (14). Briefly, after washing with PBS, cells were treated in 1 ml lysis buffer (0.01 M Tris.HCL pH 8.0, 0.01 M NaCl, 0.01M EDTA pH 8.0 and 5% sodium dodecyl sulfate) containing 1 μg/ml proteinase K for 1 hr at 50° C. The resulting products were extracted with phenol and chloroform:isoamylalcohol (24:1, v/v), and precipitated with ethanol followed by centrifugation at 7800 g (Sorvall RC-5B Du Pont, Newtown, Conn.). The ethanol was removed and the dry pellet of nucleic acid was resuspended in 10 mM Tris-HCL/1 mM EDTA solution. DNA content was determined spectrophotometrically by measuring absorption at 260 nm (A260). All samples, had A260/A280≧2. The DNA samples were then treated with RNase (Sigma, St. Louis, Mo.) at a final concentration of 0.1 μg/l for 20 min at 37° C. before gel loading. The DNA sample (4 μg) was analyzed in 1.5% horizontal agarose gel prepared with 1% ethidium bromide. Electrophoresis was performed at 75 volts for 2 hours and the DNA migration was visualized under UV light.

[5] = CEM cells, concentration killing 90% of the cells, read-out: ID90 (the source's name)

Molecule | IC90 (CEM cells [1]; [5]) | IC50 (CEM cells [1]; CEM leukemic cells) | Mitotic arrest, % (CEM cells [2]; CEM cells) | morphological effect on leukemic cells (CEM cells [2]) | Activities of inducing Apoptosis (CEM cells [2]) | Activities of inducing Mitotic block (CEM cells [2]) | Activities of inducing Necrosis (CEM cells [2]) | further results
NC(=O)NC(=O)c1ccc(NC(=O)CBr)cc1 [Compound 4-BAABU, 4-bromoacetylamino benzoylurea] | 0.15 µg/mL and 497 nM | 230 nM | <10% | necrotic cell death | − (−:<10%) | − (−:<10%) | ++++ (++++: >75%) | –
CCOC(=O)c1cccc(NC(=O)CBr)c1 [Compound 11, Ethyl-3-bromoacetoamido, benzoate] | 0.18 µg/mL and 740 nM | 590 nM | <10% | caused apoptosis | ++++ (++++: >75%) | − (−:<10%) | − (−:<10%) | fold increase of ID50 relative to 3-BAABU (CEM cells [1]; CEM leukemic cells): 10 fold
NC(=O)NC(=O)c1cccc(NC(=O)CF)c1 [Compound 6, 3-Fluoroacetoamido, benzoylurea] | – | – | <10% | – | – | – | – | IC90 (CEM cells [1]; read-out: ID90): > 2.5 µg/mL and > 10 µM; cytotoxicity against human leukemic cells (CEM) (CEM cells [1]; at a concentration as high as 10 μM): no cytotoxicity; effect on microtubule assembly (Purified tubulin): no effect; shift of the cell population from G0/G1 (2N) to G2/M (4N), DNA profile (CEM cells [3]): undetectable change; also recorded: identical to that of the untreated control; mitotic arrest (blocking) effect, morphological appearance (CEM cells [2]; CEM cells, 24 h, compound 8 at 0.025 μg/ml, compound 9 at 0.005 μg/ml): failed to induce mitotic arrest; interference with the cell cycle (CEM cells [2]; CEM cells, after 24 hours treatment, 2.5 μg/ml): virtually no interference; apoptosis, DNA fragmentation on gel electrophoresis (CEM cells [4]): did not induce apoptosis
CCOC(=O)c1cccc(NC(=O)CCl)c1 [Compound 10, Ethyl-3-chloroacetoamido, benzoate] | 0.82 µg/mL and 3.39 µM | – | <10% | – | – | – | – | –
3-bromopropionylamino benzoylurea [Compound 3-BPABU] | – | – | – | – | − (−:<10%) | − (−:<10%) | − (−:<10%) | cytotoxic activity (ID50 level) compared with 3-BAABU (CEM cells [1]; CEM leukemic cells): cytotoxic activity was eliminated
NC(=O)NC(=O)c1ccc(NC(=O)CI)cc1 [9 (4-position), 4-iodoacetoamido, benzoylurea] | 0.04 µg/mL and 112 nM | – | <10% | – | – | – | – | –
